In patent US9427001B2, “Enhanced bioavailable iodine molecules” (ZINPRO CORPORATION, priority 2011, dated 2016):
Where two headings read alike, the source gives them in different places.

Key:
[1] = nonlactating pregnant beef cows; 60 mg Iodine/day for 10 days
[2] = nonlactating pregnant beef cows, bolus

Zinc Hydroxy-Methylthio-Butyric Acid Iodide [Example III]
Average Serum iodine level (day 2-day 14) [1]: 386 | Serum iodine Day 10 (last treatment day) [1]: 630

Zinc Lysine Diiodide [Structure I]
Average Serum iodine level (day 2-day 14) ([2]; 60 mg Iodine/day for 10 days (day 0-day 10), average of day 2-14): 184 | Serum iodine Day 10 (last treatment day) ([2]; 60 mg Iodine/day for 10 days, peak value at day 10): 380 | Blood levels of iodine compared with CaIO3 or EDDI ([2]; 60 mg iodine day 0-day 10): higher blood levels of iodine than CaIO3 or EDDI
